The values below come from US20040176321A1, “Compositions of benzoquinolizine carboxylic acid antibiotic drugs” (priority 2002, published 2004).

The nature of data set [1]: Solubility study with β-cyclodextrin and hydroxypropyl β-cyclodextrin. Format: physicochemical. The following applies: ca. 24 hours, 27° C. The procedure:
The flasks were kept ca. 24 hours on a mechanical shaker, maintained at 27° C. and 140 rpm. The solutions were filtered through 0.2 micron syringe filter. The filtrates were diluted appropriately and injected on HPLC. The amounts dissolved were determined by comparing the sample peak area with peak area of standard solution.

Data set [2] can be described thus: Solubility at ambient temperature (in water). It is filed as physicochemical.
The nature of data set [3]: pKa value. Format: physicochemical.
The test system of data set [4] is Wistar rats. The following applies: rat, in vivo, iv. Here is the method: Wistar rats of body weight range 90-100 gm were treated with i.v. administered above test compositions in doses specified in the table below for a period of 7 days to 28 days. The test doses were administered by injecting 0.5 ml-1.0 ml of test compositions via tail vein of each rat with the help of graduated 1 ml disposable syringe fitted with 26½ G needle. Each repeat dose was administered in 5 male and 5 female rats. Animals were monitored for the induction of phlebitis or its progression to complete venous blockade.

In the case of `CC1CCc2c(N3CCC(O)CC3)c(F)cc3c(=O)c(C(=O)O)cn1c23` (racemic) [Substance C, RS-(±)-9-fluoro-6,7-dihydro-8-(4-hydroxypiperidin-1-yl)-5-methyl-1-oxo-1H,5H-benzo[I,j]quinolizine-2-carboxylic acid], the “amount dissolved with HP-β-CD” value was determined as 0.03 mg/mL in data set [1] (HP-β-CD 0 mg/ml); 0.05 mg/mL in data set [1] (HP-β-CD 2 mg/ml); 0.11 mg/mL in data set [1] (HP-β-CD 5 mg/ml); 0.31 mg/mL in data set [1] (HP-β-CD 10 mg/ml); 1.03 mg/mL in data set [1] (HP-β-CD 50 mg/ml). In addition, the results for the “amount dissolved with β-CD” value in data set [1] (β-CD 0 mg/ml), in data set [1] (β-CD 5 mg/ml) and in data set [1] (β-CD 10 mg/ml) were 0.03 mg/mL, 0.22 mg/mL and 0.40 mg/mL, respectively.
`C[C@H]1CCc2c(N3CCC(O)CC3)c(F)cc3c(=O)c(C(=O)O)cn1c23` [Substance A, S-(−)-9-fluoro-6,7-dihydro-8-(4-hydroxypiperidin-1-yl)-5-methyl-1-oxo-1H,5H-benzo[I,j]quinolizine-2-carboxylic acid]: in data set [2], the solubility (in general, the concentration that dissolves in the medium under given conditions) is under 1500 µg/mL. In addition, the “amount dissolved with HP-β-CD” value in data set [1] (HP-β-CD 0 mg/ml) was found to be 0.04 mg/mL; in data set [1] (HP-β-CD 2 mg/ml), 0.21 mg/mL; in data set [1] (HP-β-CD 5 mg/ml) it was 0.28 mg/mL; in data set [1] (HP-β-CD 10 mg/ml), 0.55 mg/mL; in data set [1] (HP-β-CD 50 mg/ml), 2.67 mg/mL. Further, the “amount dissolved with β-CD” value came out at 0.04 mg/mL in data set [1] (β-CD 0 mg/ml), 0.12 mg/mL in data set [1] (β-CD 2 mg/ml), 0.27 mg/mL in data set [1] (β-CD 5 mg/ml) and 0.53 mg/mL in data set [1] (β-CD 10 mg/ml). For the same compound, the pKa (as a rule, the pH at which an ionisable group is half protonated) in data set [3] is 6.8.
For the compound `C[C@H]1CCc2c(N3CCC(O)CC3)c(F)cc3c(=O)c(C(=O)O)cn1c23.N=C(N)NCCC[C@H](N)C(=O)O` [Substance B, S-(−)-9-fluoro-6,7-dihydro-8-(4-hydroxypiperidin-1-yl)-5-methyl-1-oxo-1H,5H-benzo[I,j]quinolizine-2-carboxylic acid arginine salt], the venous tolerability result in data set [4] is given as “superior venous tolerability”.
`C[C@@H]1CCc2c(N3CCC(O)CC3)c(F)cc3c(=O)c(C(=O)O)cn1c23` [Substance D, R-(+)-9-fluoro-6,7-dihydro-8-(4-hydroxypiperidin-1-yl)-5-methyl-1-oxo-1H,5H-benzo[I,j]quinolizine-2-carboxylic acid]: the “amount dissolved with HP-β-CD” value worked out at 0.15 mg/mL in data set [1] (HP-β-CD 0 mg/ml); 0.37 mg/mL in data set [1] (HP-β-CD 2 mg/ml); 0.50 mg/mL in data set [1] (HP-β-CD 5 mg/ml); 1.08 mg/mL in data set [1] (HP-β-CD 10 mg/ml); 5.01 mg/mL in data set [1] (HP-β-CD 50 mg/ml). Besides, the figures for the “amount dissolved with β-CD” value in data set [1] (β-CD 0 mg/ml) and in data set [1] (β-CD 5 mg/ml) were 0.15 mg/mL and 0.71 mg/mL, respectively.
